The text below walks through data of US4760147A, “Optically active, substituted 1,4-dihydropyridines and their use as medicaments” (Cassella Aktiengesellschaft, priority 1984, dated 1988).

In the assay the test system is spiral strips of the arteria pulmonalis of guineapigs. As to the kind of experiment: calcium-antagonistic action: relaxing effect on potassium-depolarised, CaCl2-contracted spiral strips of the arteria pulmonalis (modified method of Godfraind and Kaba and of Schumann et al). The class given is cell-based. Conditions: depolarised with 40 mmol potassium; contraction triggered by 0.5 mmol CaCl2; mean value of 4 to 6 vascular strips; read-out: IC50 (concentration which inhibits the contraction by 50%). The method, then: In these experiments, spiral strips of the arteria pulmonalis of guineapigs are depolarised with 40 mmol of potassium, after equilibration in calcium-freeTyrode's solution. The addition of 0.5 mmol of CaCl2 then triggers off contraction. The relaxing effect of the test substance is determined by cumulative addition in 1/2 log 10 graduated concentrations. The concentration of the test substance which inhibits the contraction by 50% (=IC50, mole/l) is determined from the concentration/effect curve (abscissa: -log mole/l of test substance, ordinate: % inhibition of the maximum contraction, mean value of 4 to 6 vascular strips).
On to `CC1=C(C(=O)OCCOC(C)C)C(c2cccc(Cl)c2Cl)C(c2nnco2)=C(C)N1` (single isomer, unassigned) [Example 16, 2-isopropoxy-ethyl (-)-1,4-dihydro-2,6-dimethyl-3-(1,3,4-oxadiazol-2-yl)-4-(2,3-dichlorophenyl)-pyridine-5-carboxylate], for which the IC50 is 0.1 nM.
Take `CCOC(=O)[C@@H](C)OC(=O)C1=C(C)NC(C)=C(c2nnco2)C1c1cccc(Cl)c1Cl` (single isomer, unassigned) [Example 8c]: the IC50 is 0.04 nM.
As to `COCCOC(=O)C1=C(C)NC(C)=C(c2nnco2)C1c1cccc(Cl)c1Cl` (single isomer, unassigned) [Example 4, Methoxyethyl (-)-1,4-dihydro-2,6-dimethyl-3-(1,3,4-oxadiazol-2-yl)-4-(2,3-dichlorophenyl)-pyridine-5-carboxylate], the IC50 is 0.3 nM.
Regarding `COC(=O)C1=C(C)NC(C)=C(c2nnco2)C1c1cccc(Cl)c1Cl` (single isomer, unassigned) [Example 2, Methyl (-)-1,4-dihydro-2,6-dimethyl-3-(1,3,4-oxadiazol-2-yl)-4-(2,3-dichlorophenyl)-pyridine-5-carboxylate], the IC50 was 0.2 nM.
In the case of `CC1=C(C(=O)OC(C)C)C(c2cccc(Cl)c2Cl)C(c2nnco2)=C(C)N1` (single isomer, unassigned) [Example 1e, Isopropyl (-)-1,4-dihydro-2,6-dimethyl-3-(1,3,4-oxadiazol-2-yl)-4-(2,3-dichlorophenyl)-pyridine-5-carboxylate], the IC50 came to 0.04 nM.
For `CCOC(=O)C1=C(C)NC(C)=C(c2nnco2)C1c1cccc(Cl)c1Cl` (single isomer, unassigned) [Example 3, Ethyl (-)-1,4-dihydro-2,6-dimethyl-3-(1,3,4-oxadiazol-2-yl)-4-(2,3-dichlorophenyl)-pyridine-5-carboxylate], the IC50 stood at 0.07 nM.
